According to patent US20180370927A1, “MICROBIOCIDAL OXADIAZOLE DERIVATIVES” (SYNGENTA PARTICIPATIONS AG, priority 2015, published 2018):

Assays:
Phakopsora pachyrhizi = Phakopsora pachyrhizi / soybean / leaf disc preventative (Asian soybean rust); type: in vivo; conditions: foliar, 200 ppm in the applied formulation, soybean leaf disks, assessed 12 to 14 days after application, read-out: disease control compared to untreated control leaf disks
Protocol: (§1) Leaf disks or leaf segments of various plant species are cut from plants grown in a greenhouse. The cut leaf disks or segments are placed in multiwell plates (24-well format) onto water agar. The leaf disks are sprayed with a test solution before (preventative) or after (curative) inoculation. Compounds to be tested are prepared as DMSO solutions (max. 10 mg/mL) which are diluted to the appropriate concentration with 0.025% Tween20 just before spraying. The inoculated leaf disks or segments are incubated under defined conditions (temperature, relative humidity, light, etc.) according to the respective test system. A single evaluation of disease level is carried out 3 to 14 days after inoculation, depending on the pathosystem. Percent disease control relative to the untreated check leaf disks or segments is then calculated.
Example 3: Fungicidal Activity Against Phakopsora pachyrhizi/Soybean/Leaf Disc Preventative (Asian Soybean Rust)
Soybean leaf disks are placed on water agar in multiwell plates (24-well format) and sprayed with the formulated test compound diluted in water. One day after application leaf discs are inoculated by spraying a spore suspension on the lower leaf surface. After an incubation period in a climate cabinet of 24-36 hours in darkness at 20° C. and 75% relative humidity leaf disc are kept at 20° C. with 12 hours light/day and 75% relative humidity. The activity of a compound is assessed as percent disease control compared to untreated when an appropriate level of disease damage appears in untreated check leaf disks (12 to 14 days after application).
(§2) The following compounds at 200 ppm in the applied formulation give at least 80% disease control in this test when compared to untreated control leaf disks under the same conditions, which show extensive disease development.

[1] = system: Glomerella lacenarium (Colletotrichum lacenarium); assay: Glomerella lacenarium (Colletotrichum lacenarium) liquid culture / cucumber / preventative (anthracnose); type: cell-based; conditions: 20 ppm in the applied formulation, liquid culture in PDB, 24° C., 3 to 4 days after application, read-out: disease control (inhibition of growth, photometric) compared to untreated control
Method in brief: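 Cryostored conidia in potato dextrose broth added to DMSO compound solution in microtiter plates, incubated at 24° C. Growth inhibition read photometrically 3 to 4 days after application, as percent control versus untreated check; compounds tested at 20 ppm.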

[2] = system: Puccinia recondita f. Sp. Tritici; assay: Puccinia recondita f. sp. tritici / wheat / leaf disc preventative (brown rust); type: in vivo; conditions: foliar, 200 ppm in the applied formulation, wheat leaf segments, preventative, assessed 7 to 9 days after application, read-out: disease control compared to untreated control leaf disks
Method in brief: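 Wheat cv. Kanzler leaf segments on agar sprayed with formulated compound in water, inoculated with rust spores 1 day later. Incubated at 19° C, 75% rh, 12 h light/12 h dark; percent disease control versus untreated scored 7 to 9 days after application; tested at 200 ppm.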

[3] = system: Puccinia recondita f. Sp. Tritici; assay: Puccinia recondita f. sp. tritici / wheat / leaf disc curative (brown rust); type: in vivo; conditions: foliar, 200 ppm in the applied formulation, wheat leaf segments, curative (applied 1 day after inoculation), assessed 6 to 8 days after application, read-out: disease control compared to untreated control leaf disks
Protocol: as §1
Example 2: Fungicidal Activity Against Puccinia recondita f. Sp. Tritici/Wheat/Leaf Disc Curative (Brown Rust)
Wheat leaf segments cv. Kanzler are placed on agar in multiwell plates (24-well format). The leaf segments are then inoculated with a spore suspension of the fungus. Plates were stored in darkness at 19° C. and 75% relative humidity. The formulated test compound diluted in water was applied 1 day after inoculation. The leaf segments were incubated at 19° C. and 75% relative humidity under a light regime of 12 hours light/12 hours darkness in a climate cabinet and the activity of a compound was assessed as percent disease control compared to untreated when an appropriate level of disease damage appears in untreated check leaf segments (6 to 8 days after application).
as §2

Structure (SMILES) | pest or weed control at 200 ppm (Phakopsora pachyrhizi) [%] | inhibition at 20 ppm [1] [%] | pest or weed control at 200 ppm [2] [%] | pest or weed control at 200 ppm [3] [%]
CCCC(=O)C(=O)N(Cc1ccc(-c2noc(C(F)(F)F)n2)cc1)CC1CC1 [Compound 1.6, N-(cyclopropyl-methyl)-2-oxo-N-[[4-[5-(trifluoromethyl)-1,2,4-oxadiazol-3-yl]phenyl]methyl]pentanamide] | ≥ 80 | ≥ 80 |  | 
CCCCON(Cc1ccc(-c2noc(C(F)(F)F)n2)cc1)C(=O)C(=O)CC [Compound 1.30, N-butoxy-2-oxo-N-[[4-[5-(trifluoromethyl)-1,2,4-oxadiazol-3-yl]phenyl]methyl]butanamide] | ≥ 80 | ≥ 80 |  | 
CCC(=O)C(=O)N(C)c1ccc(-c2noc(C(F)(F)F)n2)cc1 [Compound 1.34, N-methyl-2-oxo-[4-[5-(trifluoromethyl)-1,2,4-oxadiazol-3-yl]phenyl]butanamide] | ≥ 80 |  |  | 
O=C(NCc1ccc(-c2noc(C(F)(F)F)n2)c(F)c1)C(=O)c1ccccc1 [Compound 1.42, N-[[3-fluoro-4-[5-(trifluoromethyl)-1,2,4-oxadiazol-3-yl]phenyl]methyl]-2-oxo-2-phenyl-acetamide] | ≥ 80 | ≥ 80 | ≥ 80 | 
O=C(NCc1ccc(-c2noc(C(F)(F)F)n2)c(F)c1F)C(=O)c1ccccc1 [Compound 1.46, N-[[2,3-difluoro-4-[5-(trifluoromethyl)-1,2,4-oxadiazol-3-yl]phenyl]methyl]-2-oxo-2-phenyl-acetamide] | ≥ 80 | ≥ 80 | ≥ 80 | 
O=C(NCc1ccc(-c2noc(C(F)(F)F)n2)c(F)c1F)C(=O)c1cccs1 [Compound 1.48, N-[[2,3-difluoro-4-[5-(trifluoromethyl)-1,2,4-oxadiazol-3-yl]phenyl]methyl]-2-oxo-2-(2-thienyl)acetamide] | ≥ 80 | ≥ 80 | ≥ 80 | 
CON(Cc1ccc(-c2noc(C(F)(F)F)n2)cc1F)C(=O)C(=O)c1ccccc1 [Compound 1.54, N-[[2-fluoro-4-[5-(trifluoromethyl)-1,2,4-oxadiazol-3-yl]phenyl]methyl]-N-methoxy-2-oxo-2-phenyl-acetamide] | ≥ 80 | ≥ 80 | ≥ 80 | 
CON(Cc1ccc(-c2noc(C(F)(F)F)n2)cc1F)C(=O)C(=O)c1cccs1 [Compound 1.56, N-[[2-fluoro-4-[5-(trifluoromethyl)-1,2,4-oxadiazol-3-yl]phenyl]methyl]-N-methoxy-2-oxo-2-(2-thienyl)acetamide] | ≥ 80 | ≥ 80 | ≥ 80 | 
CON(Cc1ccc(-c2noc(C(F)(F)F)n2)cc1F)C(=O)C(=O)C(C)(C)C [Compound 1.57, N-[[2-fluoro-4-[5-(trifluoromethyl)-1,2,4-oxadiazol-3-yl]phenyl]methyl]-N-methoxy-3,3-dimethyl-2-oxo-butanamide] | ≥ 80 | ≥ 80 | ≥ 80 | 
O=C(NCc1ccc(-c2noc(C(F)(F)F)n2)cc1Cl)C(=O)c1ccccc1 [Compound 1.59, N-[[2-chloro-4-[5-(trifluoromethyl)-1,2,4-oxadiazol-3-yl]phenyl]methyl]-2-oxo-2-phenyl-acetamide] | ≥ 80 | ≥ 80 | ≥ 80 | 
CC(C)CC(=O)C(=O)NCc1ccc(-c2noc(C(F)(F)F)n2)cc1Cl [Compound 1.61, N-[[2-chloro-4-[5-(trifluoromethyl)-1,2,4-oxadiazol-3-yl]phenyl]methyl]-4-methyl-2-oxo-pentanamide] | ≥ 80 |  | ≥ 80 | 
Cc1cc(-c2noc(C(F)(F)F)n2)ccc1CNC(=O)C(=O)c1ccccc1 [Compound 1.65, N-[[2-methyl-4-[5-(trifluoromethyl)-1,2,4-oxadiazol-3-yl]phenyl]methyl]-2-oxo-2-phenyl-acetamide] | ≥ 80 |  | ≥ 80 | 
Cc1cc(-c2noc(C(F)(F)F)n2)ccc1CNC(=O)C(=O)c1cccs1 [Compound 1.66, N-[[2-methyl-4-[5-(trifluoromethyl)-1,2,4-oxadiazol-3-yl]phenyl]methyl]-2-oxo-2-(2-thienyl)acetamide] | ≥ 80 |  | ≥ 80 | 
Cc1cc(-c2noc(C(F)(F)F)n2)ccc1CNC(=O)C(=O)C(C)(C)C [Compound 1.67, 3,3-dimethyl-N-[[2-methyl-4-[5-(trifluoromethyl)-1,2,4-oxadiazol-3-yl]phenyl]methyl]-2-oxo-butanamide] | ≥ 80 | ≥ 80 |  | 
O=C(NCc1ccc(-c2noc(C(F)(F)F)n2)c(F)c1F)C(=O)c1ccco1 [Compound 1.81, N-[[2,3-difluoro-4-[5-(trifluoromethyl)-1,2,4-oxadiazol-3-yl]phenyl]methyl]-2-(2-furyl)-2-oxo-acetamide] | ≥ 80 | ≥ 80 |  | 
Cc1cc(-c2noc(C(F)(F)F)n2)ccc1CNC(=O)C(=O)c1ccco1 [Compound 1.86] | ≥ 80 |  | ≥ 80 | 
O=C(NCC1COCCO1)C(=O)Nc1ccc(-c2noc(C(F)(F)F)n2)cc1 (centres unmarked) [Compound 4.19, N-(1,4-dioxan-2-ylmethyl)-N′-[4-[5-(trifluoromethyl)-1,2,4-oxadiazol-3-yl]phenyl]oxamide] | ≥ 80 |  | ≥ 80 | 
NC(=O)C(=O)NCc1ccc(-c2noc(C(F)(F)F)n2)c(F)c1F [Compound 4.84, N′-[[2,3-difluoro-4-[5-(trifluoromethyl)-1,2,4-oxadiazol-3-yl]phenyl]methyl] oxamide] | ≥ 80 | ≥ 80 |  | 
NC(=O)C(=O)NCCc1ccc(-c2noc(C(F)(F)F)n2)cc1 [Compound 4.85, N′-[2-[4-[5-(trifluoromethyl)-1,2,4-oxadiazol-3-yl]phenyl]ethyl] oxamide] | ≥ 80 | ≥ 80 |  | 
CNC(=O)C(=O)N(Cc1ccc(-c2noc(C(F)(F)F)n2)cc1)C1CC1 [Compound 4.100, N′-cyclopropyl-N-methyl-N′-[[4-[5-(trifluoromethyl)-1,2,4-oxadiazol-3-yl]phenyl]methyl] oxamide] |  | ≥ 80 | ≥ 80 | ≥ 80
CONC(=O)C(=O)N(C)Cc1ccc(-c2noc(C(F)(F)F)n2)cc1 [Compound 4.102, N-methoxy-N′-methyl-N′-[[4-[5-(trifluoromethyl)-1,2,4-oxadiazol-3-yl]phenyl]methyl] oxamide] |  | ≥ 80 | ≥ 80 | ≥ 80
CONC(=O)C(=O)N(Cc1ccc(-c2noc(C(F)(F)F)n2)cc1)C1CC1 [Compound 4.103, N′-cyclopropyl-N-methoxy-N′-[[4-[5-(trifluoromethyl)-1,2,4-oxadiazol-3-yl]phenyl]methyl] oxamide] |  | ≥ 80 | ≥ 80 | ≥ 80
CCN(Cc1ccc(-c2noc(C(F)(F)F)n2)cc1)C(=O)C(=O)NOC [Compound 4.107, N'-ethyl-N-methoxy-N′-N′-[[4-[5-(trifluoromethyl)-1,2,4-oxadiazol-3-yl]phenyl]methyl] oxamide] |  | ≥ 80 | ≥ 80 | ≥ 80
